{"source": "paper PMC7044277", "about": "(Nature Communications, 2020)", "key": {"[1]": {"target": "T1, 5HT4 (Homo sapiens, UniProt Q13639)", "T1 construct": "expressed in transfected cells; host or cells: HTLA cells expressing TEV-fused β-arrestin2", "experiment": "β-arrestin2 recruitment (Tango)", "format": "cell-based", "conditions": "Fig_S10n; for β-arrestin2 recruitment response in presence of serotonin (replicate values): +10μM serotonin; for β-arrestin2 recruitment response (dose-response source data, replicate values): drug alone"}, "[2]": {"tested_on": "serotonin receptor (subtype not given; reference agonist serotonin)", "experiment": "β-arrestin2 recruitment (Tango), agonist activity, source data Fig_S10l", "format": "cell-based, human", "conditions": "drug alone"}, "[3]": {"target": "T2, DRD2 F1103.28A (Homo sapiens, UniProt P14416, F110A)", "T2 sequence (P14416 whole entry F110A)": "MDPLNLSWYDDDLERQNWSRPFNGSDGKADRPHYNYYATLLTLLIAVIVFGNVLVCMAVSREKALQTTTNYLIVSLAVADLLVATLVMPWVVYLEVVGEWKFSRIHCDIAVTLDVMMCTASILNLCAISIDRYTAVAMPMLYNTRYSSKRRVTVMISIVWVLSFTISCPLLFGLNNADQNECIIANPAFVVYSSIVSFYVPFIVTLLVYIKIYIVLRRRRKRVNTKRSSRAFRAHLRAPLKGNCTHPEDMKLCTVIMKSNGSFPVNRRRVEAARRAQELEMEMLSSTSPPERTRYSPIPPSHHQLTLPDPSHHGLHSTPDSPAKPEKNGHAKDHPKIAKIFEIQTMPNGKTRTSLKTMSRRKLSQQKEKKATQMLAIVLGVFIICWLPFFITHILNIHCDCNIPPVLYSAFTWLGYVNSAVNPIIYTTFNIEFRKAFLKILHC", "experiment": "Gαi/o-mediated cAMP inhibition (GloSensor), mutant", "format": "cell-based", "parameters": "expressed in transfected cells; host or cells: HEK293T (ATCC CRL-11268)"}, "[4]": {"target": "T2, DRD2 F1103.28A", "experiment": "β-arrestin2 recruitment (Tango), mutant", "format": "cell-based", "parameters": "expressed in transfected cells; host or cells: HEK293T (ATCC CRL-11268)"}}, "note": "Values joined by “and” are separate entries in the source; they are usually repeats but may differ in a detail not shown here. Identical values can stand only once.", "data": [{"smiles": "CCOc1cccc2cc([C@@H](C)NCC3(O)CCCCC3)oc12", "note": "[O4RE6]", "values": [{"measurement": "β-arrestin2 recruitment response in presence of serotonin (replicate values)", "setting": "[1]; Log[Drug] -8", "value": "65.8409 and 63.3895 and 63.0679 and 59.9271 and 55.4104 and 64.9198 and 50.9713 and 49.466 and 77.9372"}, {"measurement": "β-arrestin2 recruitment response (dose-response source data, replicate values)", "setting": "[1]; Log[Drug] -8", "value": "0.2279 and 0.2043 and 0.8233 and 0.8469 and 0.6458 and 2.318 and -0.27 and -0.308 and 0.6993"}, {"measurement": "β-arrestin2 recruitment response in presence of serotonin (replicate values)", "setting": "[1]; Log[Drug] -8.52", "value": "63.4237 and 62.7587 and 63.6242 and 63.1469 and 61.3792 and 61.5198 and 57.3708 and 61.2149 and 65.253"}, {"measurement": "β-arrestin2 recruitment response (dose-response source data, replicate values)", "setting": "[1]; Log[Drug] -8.52", "value": "1.195 and 1.746 and 0.9636 and 0.6083 and 1.193 and 1.147 and -0.3056 and 0.2118 and 0.0477"}, {"measurement": "β-arrestin2 recruitment response in presence of serotonin (replicate values)", "setting": "[1]; Log[Drug] -9", "value": "73.1291 and 64.8356 and 60.6203 and 52.4417 and 65.9365 and 64.5823 and 63.8148 and 65.7381 and 55.6869"}, {"measurement": "β-arrestin2 recruitment response (dose-response source data, replicate values)", "setting": "[1]; Log[Drug] -9", "value": "0.9748 and 0.4464 and 1.275 and 1.439 and 1.359 and 0.525 and -0.3751 and 0.5028 and -0.1156"}, {"measurement": "β-arrestin2 recruitment response in presence of serotonin (replicate values)", "setting": "[1]; Log[Drug] -9.52", "value": "69.2832 and 67.6123 and 68.9932 and 55.1 and 63.4344 and 64.601 and 58.9998 and 66.4964 and 65.7267"}, {"measurement": "β-arrestin2 recruitment response (dose-response source data, replicate values)", "setting": "[1]; Log[Drug] -9.52", "value": "0.9748 and 1.052 and 0.4042 and 0.901 and 0.7365 and 0.6104 and 1.02 and 0.3484 and -0.01698"}, {"measurement": "β-arrestin2 recruitment response in presence of serotonin (replicate values)", "setting": "[1]; Log[Drug] -10", "value": "76.2485 and 62.2675 and 64.5873 and 59.8927 and 56.6667 and 68.1219 and 68.0316 and 61.4033 and 67.9677"}, {"measurement": "β-arrestin2 recruitment response (dose-response source data, replicate values)", "setting": "[1]; Log[Drug] -10", "value": "0.629 and 0.5812 and 0.457 and 0.6927 and 0.4885 and 0.9823 and -0.2005 and 5.06 and 0.3864"}, {"measurement": "β-arrestin2 recruitment response in presence of serotonin (replicate values)", "setting": "[1]; Log[Drug] -10.52", "value": "75.7189 and 64.7332 and 70.6094 and 73.5573 and 66.3448 and 67.3771 and 66.768 and 70.3542 and 67.3953"}, {"measurement": "β-arrestin2 recruitment response (dose-response source data, replicate values)", "setting": "[1]; Log[Drug] -10.52", "value": "0.4328 and 0.1577 and 0.7768 and 0.8562 and 0.5281 and 1.361 and 0.08327 and -0.03395 and 0.2724"}, {"measurement": "β-arrestin2 recruitment response in presence of serotonin (replicate values)", "setting": "[1]; Log[Drug] -11", "value": "74.7968 and 75.6357 and 68.127 and 60.4448 and 57.1219 and 66.626 and 65.7178 and 87.5009 and 57.2593"}, {"measurement": "β-arrestin2 recruitment response (dose-response source data, replicate values)", "setting": "[1]; Log[Drug] -11", "value": "0.5557 and 0.7004 and 0.8308 and 2.567 and 0.5635 and 1.27 and -0.1415 and -0.4034 and 0.4066"}, {"measurement": "β-arrestin2 recruitment response in presence of serotonin (replicate values)", "setting": "[1]; Log[Drug] -11.52", "value": "97.2705 and 89.1683 and 77.1935 and 74.2448 and 65.2792 and 55.4573 and 62.6402 and 78.6163 and 88.7629"}, {"measurement": "β-arrestin2 recruitment response (dose-response source data, replicate values)", "setting": "[1]; Log[Drug] -11.52", "value": "0.4266 and 1.996 and 0.1267 and 1.773 and 0.5229 and 1.651 and 0.05093 and 0.01859 and 0.1746"}, {"measurement": "β-arrestin2 recruitment response in presence of serotonin (replicate values)", "setting": "[1]; Log[Drug] -12", "value": "118.392 and 99.4834 and 97.7219 and 77.2104 and 74.4021 and 77.9375 and 116.996 and 81.757 and 92.5544"}, {"measurement": "β-arrestin2 recruitment response (dose-response source data, replicate values)", "setting": "[1]; Log[Drug] -12", "value": "0.9382 and 1.326 and 1.032 (2×) and 0.8271 and 0.8656 and -0.4301 and -0.07599 and 0.5061"}, {"measurement": "response, Fig_S10l, replicate values", "setting": "[2]; Log[Drug] -6.52", "value": -3.85}, {"measurement": "response, Fig_S10l, replicate values", "setting": "[2]; Log[Drug] -7", "value": "-18.1455 and -1.053 and 5.44 and -6.097 and -0.7764 and -1.627 and 21.5386 and -8.446 and -23.0116"}, {"measurement": "response, Fig_S10l, replicate values", "setting": "[2]; Log[Drug] -7.52", "value": "10.4314 and -7.0535 and -12.5511 and -5.4086 and -2.507 and -5.8801 and -14.9973 and 5.012 and -22.748"}, {"measurement": "response, Fig_S10l, replicate values", "setting": "[2]; Log[Drug] -8", "value": "-3.494 and -0.9897 and -1.101 and -6.133 and 9.37 and -6.103 and -6.764 and -19.0522 and -18.9699"}, {"measurement": "response, Fig_S10l, replicate values", "setting": "[2]; Log[Drug] -8.52", "value": "-14.6079 and -9.137 and 0.1161 and -2.858 and 0.4788 and -6.718 and 5.642 and 9.781 and -19.7014"}, {"measurement": "response, Fig_S10l, replicate values", "setting": "[2]; Log[Drug] -9", "value": "-7.429 and -0.8033 and 2.514 and -1.371 and -2.511 and 6.172 and -12.5406 and 13.3677 and 9.079"}, {"measurement": "response, Fig_S10l, replicate values", "setting": "[2]; Log[Drug] -9.52", "value": "-7.024 and -4.6241 and 4.382 and 5.183 and -6.777 and -3.91 and -13.0464 and 1.094 and -1.351"}, {"measurement": "response, Fig_S10l, replicate values", "setting": "[2]; Log[Drug] -10", "value": "-1.517 and -3.218 and -6.7099 and 1.544 and 10.647 and -1.892 and 3.1372 and 12.1979 and 15.1176"}, {"measurement": "response, Fig_S10l, replicate values", "setting": "[2]; Log[Drug] -10.52", "value": "7.131 and -7.271 and -11.3727 and 2.195 and -7.95 and -8.5307 and 3.862 and 0.6607 and 18.5102"}, {"measurement": "response, Fig_S10l, replicate values", "setting": "[2]; Log[Drug] -11", "value": "7.402 and 9.101 and -6.117 and -2.283 and 7.1162 and 16.1339 and -5.988 and 21.1185 and -1.691"}, {"measurement": "response, Fig_S10l, replicate values", "setting": "[2]; Log[Drug] -11.52", "value": "20.0426 and 4.341 and -34.8779 and 9.958 and -2.256 and -5.643 and 0.02142 and 3.842 and -14.699"}, {"measurement": "response, Fig_S10l, replicate values", "setting": "[2]; Log[Drug] -12", "value": "1.452 and 8.392 and -9.8386 and -3.912 and 6.115 and -2.202 and -0.8107 and 10.4431 and -9.6291"}, {"measurement": "EC50", "setting": "[3]", "value": "> 10", "unit": "µM"}, {"measurement": "EC50", "setting": "[4]", "value": "> 10", "unit": "µM"}]}]}
